Results published in the supplement of paper PMC9663587.

What was measured:
Cisplatin = compound: N.N.Cl[Pt]Cl [Cisplatin]
YKL-5-124 = compound: C=CC(=O)Nc1ccc(C(=O)Nc2[nH]nc3c2CN(C(=O)N[C@H](CN(C)C)c2ccccc2)C3(C)C)cc1 [YKL-5-124]
FMF-03-145-1 = compound: CCC(=O)Nc1ccc(C(=O)Nc2ccc(Nc3ncc4c(n3)N(C)c3ccc(C)cc3C(=O)N4C)cc2)cc1 [FMF-03-145-1]
Everolimus = compound: CO[C@H]1C[C@@H]2CC[C@@H](C)[C@@](O)(O2)C(=O)C(=O)N2CCCC[C@H]2C(=O)O[C@H]([C@H](C)C[C@@H]2CC[C@@H](OCCO)[C@H](OC)C2)CC(=O)[C@H](C)/C=C(\C)[C@@H](O)[C@@H](OC)C(=O)[C@H](C)C[C@H](C)/C=C/C=C/C=C/1C [Everolimus]
Bleomycin = compound: CC1=C(N=C(N=C1N)[C@H](CC(=O)N)NC[C@@H](C(=O)N)N)C(=O)N[C@@H]([C@H](C2=CN=CN2)OC3C(C(C(C(O3)CO)O)O)OC4C(C(C(C(O4)CO)O)OC(=O)N)O)C(=O)N[C@H](C)[C@H]([C@H](C)C(=O)N[C@@H]([C@@H](C)O)C(=O)NCCC5=NC(=CS5)C6=NC(=CS6)C(=O)NCCC[S+](C)C)O [Bleomycin]; conditions: main component drawn
[1] = compound: COc1cccc(OCCCN)c1-c1cc(Nc2cnc(C#N)cn2)n[nH]1
Etoposide = compound: COc1cc([C@@H]2c3cc4c(cc3[C@@H](O[C@@H]3O[C@@H]5CO[C@@H](C)O[C@H]5[C@H](O)[C@H]3O)[C@H]3COC(=O)[C@H]23)OCO4)cc(OC)c1O [Etoposide]
Topotecan = compound: CC[C@@]1(O)C(=O)OCc2c1cc1n(c2=O)Cc2cc3c(CN(C)C)c(O)ccc3nc2-1 [Topotecan]
[2] = compound: CC(=O)c1c(C)c2cnc(Nc3ccc(N4CCNCC4)cn3)nc2n(C2CCCC2)c1=O; experiment: GR value, 72 h; higher = faster growth (1 = untreated, <0 = killing);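 further: breast cancer and non-malignant breast epithelial lines, nine half-log doses, viable cells counted by Hoechst and LIVE/DEAD dye imaging versus time-zero plates and DMSO controls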
Neratinib/HKI272 = compound: CCOc1cc2ncc(C#N)c(Nc3ccc(OCc4ccccn4)c(Cl)c3)c2cc1NC(=O)/C=C/CN(C)C [Neratinib/HKI272]; experiment: as above
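Wherever GR50, 72 h is given: breast cancer and non-malignant breast epithelial cell lines, Deep Dye Drop or Dye Drop imaging, nine half-log doses, GR normalized to time-zero plates and DMSO-only controls.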

Cell Line	GR50, 72 h (Cisplatin) [µM]	GR50, 72 h (YKL-5-124) [µM]	GR50, 72 h (FMF-03-145-1) [µM]	GR50, 72 h (Everolimus) [µM]	GR50, 72 h (Bleomycin) [µM]	GR50, 72 h [1] [µM]	GR50, 72 h (Etoposide) [µM]	GR50, 72 h (Topotecan) [µM]	GR value ([2]; 0.0003162 µM) [GR]	GR value ([2]; 0.001 µM) [GR]	GR value ([2]; 0.003162 µM) [GR]	GR value ([2]; 0.01 µM) [GR]	GR value ([2]; 0.03162 µM) [GR]	GR value ([2]; 0.1 µM) [GR]	GR value ([2]; 0.3162 µM) [GR]	GR value ([2]; 1 µM) [GR]	GR value ([2]; 3.162 µM) [GR]	GR value (Neratinib/HKI272; 0.0003162 µM) [GR]	GR value (Neratinib/HKI272; 0.001 µM) [GR]	GR value (Neratinib/HKI272; 0.003162 µM) [GR]	GR value (Neratinib/HKI272; 0.01 µM) [GR]	GR value (Neratinib/HKI272; 0.03162 µM) [GR]	GR value (Neratinib/HKI272; 0.1 µM) [GR]	GR value (Neratinib/HKI272; 0.3162 µM) [GR]	GR value (Neratinib/HKI272; 1 µM) [GR]	GR value (Neratinib/HKI272; 3.162 µM) [GR]
MDAMB361	2.63	< 0.001	0.00904	< 0.001	0.758	0.000459	1.19	0.0114	0.963	1.12	0.976	0.78	0.319	0.172	0.0854	0.151	0.184	0.976	0.848	0.824	0.783	0.639	0.514	0.486	0.241	-0.516
MCF12A		0.0013	0.00914	> 10		0.000725			1.04	1.03	1.02	0.974	0.921	0.889	0.912	0.758	0.667	1.07	0.998	1.01	1.04	1.03	0.893	0.546	0.336	0.0907
HCC1419	1.79	< 0.001	0.00703		4.04	0.000648	0.736	0.00719	1.18	1.09	1.11	0.903	0.828	0.612	0.535	0.393	0.492	0.769	0.611	0.148	0.0675	-0.097	-0.159	-0.26	-0.404	-0.494
CAMA1	0.919		0.00649		1.69	0.00063	0.155	0.00321	0.969	0.973	0.94	0.887	0.678	0.442	0.303	0.3	0.288	1.08	1.01	1.01	0.989	1	0.993	0.949	0.837	0.455
BT549	1.02	0.00293		> 10	0.18	2.27e-05	0.181	0.00847	1.02	1.04	1.03	1.06	1.06	1.04	1.03	1.08	1.07	1.02	1.03	1	1.04	1.02	0.969	0.904	0.793	0.196
ZR751		0.0019	0.00573	< 0.001		0.0012			1.02	0.998	1.03	1.02	1.02	0.844	0.719	0.637	0.489	1.01	1.03	0.972	1.02	0.92	0.864	0.741	0.757	0.733
BT20	0.791	0.0135			0.488	0.000944	0.301	0.0123	1.07	1.09	0.956	0.809	0.567	0.36	0.24	0.203	0.156	1.04	1.03	1.07	0.976	0.918	0.86	0.693	0.607	0.295
CAL51	2.1	0.00889	0.00666	> 10	0.169	0.000588	0.24	0.0191	0.968	1.02	0.982	0.911	0.783	0.646	0.516	0.446	0.354	0.983	1	0.938	1.01	1	0.975	0.94	0.833	0.293
CAL851	1.03		0.00449	0.00155	0.453	0.000351	0.416	0.0158	1.05	1.07	1.13	1.09	1.17	1.06	0.993	1.07	1.07	1.04	0.993	0.881	0.747	0.435	0.226	0.109	-0.0501	-0.322
CAL120	2.93	0.00898	0.00643	> 10	1.69	0.000952	0.48	0.00749	1.02	1.01	0.992	0.953	0.815	0.756	0.761	0.743	0.671	0.996	1.03	0.97	0.973	0.999	0.876	0.618	0.355	-0.262
UACC812		< 0.001	0.00186						1.11	0.781	0.839	0.637	0.409	0.173	0.0192	-0.127	-0.162	1.02	0.785	0.449	0.258	-0.145	-0.384	-0.493	-0.574	-0.747
MCF10A (GM)		< 0.001	0.00563			0.0122																				
HCC38	0.993	< 0.001	0.00507		0.199	0.000505	0.334	0.00681	1.03	1.06	0.926	0.889	0.604	0.398	0.31	0.239	0.133	1.02	1.03	0.987	0.96	0.879	0.951	0.823	0.846	0.456
SUM159	4.32	< 0.001	0.00548	> 10	0.262	0.000711	0.398	0.0182	1	0.988	0.987	0.947	0.881	0.755	0.64	0.574	0.468	1.01	1.02	1.02	0.994	0.96	0.927	0.851	0.705	0.507
MDAMB468	1.26	< 0.001	0.00536	> 10	0.823		0.488	0.0158	0.963	1.02	1.02	1.05	1.02	1.01	1.06	1.05	1.05	0.947	0.97	0.983	0.969	0.838	0.56	0.257	-0.0811	-0.395
SUM149	0.571	< 0.001	0.00558	> 10	0.039	0.000514	0.127	0.00569	1.02	1.03	0.983	0.981	0.82	0.701	0.623	0.567	0.485	1.04	1.01	1.02	0.895	0.663	0.408	0.251	0.199	0.144
MDAMB231	2.41	< 0.001		> 10	6.32	0.000148	0.704	0.0297	1.08	1.02	0.921	0.824	0.637	0.494	0.418	0.288	0.202	1.03	0.999	0.978	1.05	1.03	1.01	0.917	0.688	-0.0968
MDAMB453	3.4	< 0.001	0.00648		1.31	0.0005	0.383	0.00669	1.08	1.06	0.994	0.851	0.607	0.278	0.105	0.0968	0.0641	0.988	0.937	0.825	0.596	0.44	0.366	0.139	-0.0602	-0.339
SKBR3	5.11	< 0.001	0.00508	< 0.001	1.05	0.000441	0.398	0.0165	1.05	1.03	0.946	0.845	0.697	0.591	0.434	0.48	0.334	0.841	0.631	0.264	0.0804	0.0019	-0.0509	-0.163	-0.252	-0.246
EFM19		< 0.001	0.00827	< 0.001					1.05	1.03	1.03	1.02	0.941	0.843	0.626	0.401	0.284	1.07	1.12	1.12	1.05	1.06	1.03	0.933	0.811	0.688
HCC1395	0.491	0.00123	0.00474	0.00256	0.104	0.000487	0.42	0.00275	1.12	1.07	1.06	0.944	0.702	0.495	0.444	0.386	0.324	1.05	1.07	1.14	1	1.06	0.916	0.741	0.521	0.0073
HCC1937	0.777	0.00225	0.00546	> 10	0.187	0.000607	0.355	0.0155	1.04	1.1	1.13	1.1	1.06	1.03	0.99	1.07	1.07	0.987	1.03	0.951	0.945	0.897	0.824	0.735	0.633	0.295
PDX1258	2.56	0.00166		> 10	0.783	0.000103	0.317	0.0135	1.07	1.08	1.11	1.12	1.1	1.05	1.09	1.09	0.993	1.07	1.02	1.1	1	0.938	0.772	0.749	0.548	0.195
MDAMB436	0.417	0.0324	0.00578	> 10	0.855	0.000612	0.26	0.00594	1.06	1.04	1.03	1.04	0.977	1.03	1.01	1.09	1.02	1	0.997	1.03	1.04	0.993	0.878	0.641	0.43	0.0253
HTERT_HME1	1.12	< 0.001	0.00584		0.207	0.000593	0.138	0.00727	1.03	1.06	1.03	0.956	0.796	0.615	0.458	0.354	0.235	1.07	1.09	1.08	1.01	0.89	0.57	0.349	0.269	0.105
SUM1315	1.28	0.0168	0.0047		0.214	0.000483	0.29	0.0118	1.07	0.996	0.938	0.855	0.593	0.522	0.365	0.417	0.293	1.07	0.992	1.01	0.908	0.69	0.517	0.309	0.162	0.101
